Test results reported in patent publication US20120010178A1, “METHODS AND COMPOUNDS FOR TREATMENT OF NEURODEGENERATIVE DISORDERS” (PRESIDENT AND FELLOWS OF HARVARD COLLEGE, priority 2008, published 2012).
Entries after “also recorded” stand apart in the source; their conditions may differ. Residues, ends and D or L forms follow the SMILES beside them. *: point of attachment. Cbz = O=C(OCc1ccccc1)*

Tests used:
SMN [1] = assay: High-content fibroblast screen for compounds that modulate SMN level; settings: human fibroblasts, 2-3 days with compound;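 note: Anti-SMN immunostaining with confocal imaging of nuclear and cytoplasmic SMN and gem counts, tested at 0.1, 1 and 10 uM, fold change relative to negative control wells on each plate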
Procedure: Human fibroblasts were incubated for 2-3 days with compounds from annotated collections. Cells were fixed and stained with an anti-SMN antibody. Confocal imaging was used to quantify SMN fluorescence in nucleus and cytoplasm and count Gems. Data were collected and subsequently analyzed by clustering compounds by suspected mechanism of action and chemical structure.
Following optimization of assay conditions on day 0, total of 500 human fibroblasts (GM09677 line) per well were seeded in 384-well plates, on day 3 they were treated with compounds (robot CyBio) from the annotated collections and on the 5 day plates were fixed and stained (robot MAPD) with an anti-SMN antibody and secondary antibody conjugated with 448 fluorophore (FIG. 19a). Compounds from the libraries were added in duplicate at three final concentrations of 10, 1 and 0.1 uM.
SMN detection was done on the automated confocal microscope Opera PerkinElmer with separate fluorescent exposures to 488 nM laser for and a UV light source to detect nuclei stained with Hoechst 33258 with a 20× objective.
After scanning on the Opera, an XML file extraction workflow, designed with Inforsense KDE, was used to assemble the data from multiple replicate plates of each HCS experiment including the quantitative parameters described above and chemical identities, chemical concentrations and indications of which wells were used for positive and negative controls. […] The fold-induction of SMN intensity values for each well treated with a library chemical were normalized to the SMN average intensity in multiple negative control wells per plate.
Since it is not known which form of SMN increase is the most essential, hits that scored in a duplicate at least in two different parameters greater than 1.3 fold at any of the three concentrations were selected (FIG. 19d). […] Further, 220 compounds were screened in the absence of anti-SMN primary antibody with the same assay conditions, to filter out the fluorescent compounds.

SMN [2] = assay: SMN immunofluorescence quantification (cytoplasm, nucleus, GEMs) in fibroblasts from SMA patients; type: cell-based, human; settings: for levels of cytoplasmic and nuclear SMN (in words) / Avg. SMN fold increase: SMA patient fibroblasts; for levels of cytoplasmic and nuclear SMN (in words): substance alone; for decrease of basal level of SMN: added to the regular serum media in which cells are maintained, no added PDGF; for Avg. SMN fold increase: human PDGF isoforms
Procedure: Specifically, fibroblasts from patients suffering from SMA were treated with Ionomycin (a channel modulator), Ouabain (a cardiac glycoside and channel modulator), PDGF, SAHA (an HDAC inhibitor), Lactacystin (a proteasome inhibitor) or WIN 55,212-2 (a cannabinoid receptor […] and GPCR ligand) for 72 hours. The cells were fixed with methanol/acetone and stained with Pharmingen BD antibodies, followed by 488 AlexaFluor staining. Images were obtained with 60× lens on Zeiss LSM510 META on an inverted confocal microscope.
For example, fibroblasts from patients suffering from SMA were treated with Ouabain, Digoxin or Lanatoside at a concentration of 0, 2.5 nM, 5 nM, 10 nM, 20 nM, 40 nM, 80 nM, […] for 72 hours. The cells were fixed with methanol/acetone and stained with Pharmingen BD antibodies, followed by 488 AlexaFluor staining. Images were obtained with 60× lens on Zeiss LSM510 META on an inverted confocal microscope.
An assay was established for high-content evaluation of SMN protein level in different cellular compartments after treatment with small molecules. SMN protein was visualized by immunofluorescent staining and multiple fields from each plate well were scanned by an automated confocal Opera microscope. […] For each well, the algorithm generated quantitative parameters representing number of cells, as well as SMN fluorescent intensity per cell in cytoplasm, nucleus, number and intensity of GEMs (FIG. 15). […] During the assay transfer to the robotic platform fixation with the ice cold methanol was technically limited, therefore to preserve the maximum possible window we chose to perform the screen on parental fibroblast with PFA fixation.
For fibroblast assays, human fibroblasts lines GM09677 (derived from patient with SMA type 1 disease) and GM03814 (derived from unaffected parental SMA carriers) were used (Coriell Cell Repositories). […] For secondary assays cells from GM09677 line were used.
Fibroblasts were grown in MEM media (Invitrogen) supplemented with 5% Fetal Bovine Serum (FBS, Invitrogen), 2 mM glutamine and 1% penicillin-streptomycin (100 U/ml) in a presence of 5% CO2 at 37° C. For drug treatments, cells were plated and treated 24 h later with 10 μM MG132 (Biomol International), […] Calpeptin (Biomol International), 10 mM ammonium chloride, 1 μM myristoylated PKI, or vehicle for the designated times.
(§1) Compounds were stored at appropriate temperature and dissolved accordingly to the manufacturers (Tocris, Enzo, EMD and Sigma-Aldrich) in DMSO (Sigma-Aldrich), unless stated otherwise (Monensin Na in EtOH, DMPQ in water). Growth factors and PDGF neutralizing antibodies (R&D Systems) were reconstituted with buffers recommended by the supplier. For generation of the dose curves, 1×10^3 fibroblasts were plated on to 96-well Greiner Senso plates (VWR) and treated with compounds on the second day then fixed and stained at the indicated time points. For GSK inhibitors and performing p-GSK3b(Ser9) detection, two days after plating growth media containing 5% FBS was replaced to the media with FBS reduced down to 0.5%, to starve cells for 72 hours. Addition of the GSK inhibitors was done in 5% FBS enriched media.

SMN [3] = assay: Inhibition of PDGF-stimulated SMN increase in fibroblasts by kinase/receptor inhibitors; type: cell-based, human; settings: for SMN Cytoplam (inhibition of PDGF-stimulated SMN increase) / SMN GEM Intensity (inhibition of PDGF-stimulated SMN increase) / SMN Nuclear (inhibition of PDGF-stimulated SMN increase): inhibitor at the concentration (nM), fibroblast stimulation with PDGF; for Cell Number (affected by inhibitor): inhibitor at the concentration of the table row, PDGF stimulated fibroblasts; for PDGF-stimulated SMN increase in the cytoplasm in presence of inhibitor (in words) / PDGF-stimulated SMN increase in the nucleus in presence of inhibitor (in words): pre-treatment with p38 inhibitor; for PDGF-stimulated SMN increase in presence of inhibitor (in words): SMA patient fibroblasts, PDGF plus inhibitor or neutralizing antibody
Procedure: Fibroblasts from patients suffering from SMA were treated with PDGF at a concentration of 0, 0.3 ng/ml, 0.63 ng/ml, 1.25 ng/ml, 2.5 ng/ml, 5 ng/ml, 10 ng/ml or 20 ng/ml, in the absence or in the presence of 25 uM DMPQ or 25 uM AG-1296 respectively for 72 hours. The levels of both cytoplasmic and nuclear SMN were detected and quantified using the method described in Example 2.
(§2) Fibroblasts from patients suffering from SMA were either control treated or treated with PDGF at a concentration of 0, 0.63 ng/ml, 1.25 ng/ml, 2.5 ng/ml, 5 ng/ml, 10 ng/ml or 20 ng/ml, in the absence or in the presence of 50 uM LY294002 or 2 uM P1-103 respectively for 72 hours. The levels of both cytoplasmic and nuclear SMN were detected and quantified using the method described in Example 2.
as §2, with “of” for “of 50 uM LY294002 or”, “uM Papamycin” for “uM P1-103 respectively”, “Example x.” for “Example 2.”
A range of concentrations were tested in order not to miss the effects. SMN level were evaluated by Opera Evoteck in each cellular compartment and to assess the cell numbers that are summarized in the Table 3.
as §1, with “media. As previously described, starvation increases levels of constitutively activate GSK3b kinase, allowing to achieve a more dramatic inhibitory effect when GSK inhibitors are added together with growth factors that are also known to inhibit GSK by Ser-9 phosphorylation. […] For all compounds and growth factors control wells received solvent in amount equivalent to the highest concentration of the compound in a dose curve. For PDGF inhibitory studies, cells were pre-treated with kinase inhibitors for 2 hours and PDGF was added with a fresh kinase inhibitor solution and incubated for an additional 3 days.” for “media.”

Compound: C[C@H]1O[C@@H](O[C@H]2[C@@H](O)C[C@H](O[C@H]3[C@@H](O)C[C@H](O[C@H]4CC[C@@]5(C)[C@H](CC[C@@H]6[C@@H]5C[C@@H](O)[C@]5(C)[C@@H](C7=CC(=O)OC7)CC[C@]65O)C4)O[C@@H]3C)O[C@@H]2C)C[C@H](O)[C@@H]1O [Digoxin]
- SMN level in fibroblast screen (increase or decrease) (SMN [1]): increase SMN

Compound: O=C(Nc1cc(C(F)(F)F)cc(C(F)(F)F)c1)c1cc(Cl)ccc1O [IMD-0354]
- SMN level in fibroblast screen (increase or decrease) (SMN [1]): SMN is increase

Compound: Clc1ccc2ncnc(NCc3ccc4c(c3)OCO4)c2c1 [MBCQ]
- SMN level in fibroblast screen (increase or decrease) (SMN [1]): increase SMN

Compound: CC(C)C[C@@H](C=O)NC(=O)[C@H](CC(C)C)NC(=O)[C@H](CC(C)C)NC(=O)OCc1ccccc1 [MG-132] (Cbz-Leu-Leu-Leu-aldehyde)
- SMN level in fibroblast screen (increase or decrease) (SMN [1]): increase SMN

Compound: COC(=O)C1=C(C)NC(C)=C([N+](=O)[O-])C1c1ccccc1C(F)(F)F (stereo not drawn) [Bay K8644]
- levels of cytoplasmic and nuclear SMN (in words) (SMN [2]): not active

Compound: C[S+]([O-])c1ccc(-c2nc(-c3ccc(F)cc3)c(-c3ccncc3)[nH]2)cc1 (stereo not drawn) [SB203580, 4-(4-Fluorophenyl)-2-(4-methylsulfinylphenyl)-5-(4-pyridyl)-1H-imidazole]
- SMN Cytoplam (inhibition of PDGF-stimulated SMN increase) (SMN [3]): 20%
- SMN GEM Intensity (inhibition of PDGF-stimulated SMN increase) (SMN [3]): some
- SMN Nuclear (inhibition of PDGF-stimulated SMN increase) (SMN [3]): 0%
- Cell Number (affected by inhibitor) (SMN [3]): Yes
- PDGF-stimulated SMN increase in the cytoplasm in presence of inhibitor (in words) (SMN [3]): able to prevent SMN increase induced by PDGF; also recorded: partial inhibition of SMN in the cytoplasm
- PDGF-stimulated SMN increase in the nucleus in presence of inhibitor (in words) (SMN [3]): not in the nucleus; also recorded: leaving nuclear SMN unaffected

Compound: C[C@H]1O[C@@H](O[C@H]2[C@@H](O)C[C@H](O[C@H]3[C@@H](O)C[C@H](O[C@H]4CC[C@@]5(C)[C@H](CC[C@@H]6[C@@H]5CC[C@]5(C)[C@@H](C7=CC(=O)OC7)CC[C@]65O)C4)O[C@@H]3C)O[C@@H]2C)C[C@H](O)[C@@H]1O [Dititoxin]
- SMN level in fibroblast screen (increase or decrease) (SMN [1]): increase SMN

Compound: COc1cccc(-c2cc(=O)c3ccccc3o2)c1N [PD98059]
- PDGF-stimulated SMN increase in presence of inhibitor (in words) (SMN [3]): only partially inhibited
- SMN Cytoplam (inhibition of PDGF-stimulated SMN increase) (SMN [3]): 20%
- SMN GEM Intensity (inhibition of PDGF-stimulated SMN increase) (SMN [3]): 20%
- SMN Nuclear (inhibition of PDGF-stimulated SMN increase) (SMN [3]): 20%
- Cell Number (affected by inhibitor) (SMN [3]): Yes

Compound: Oc1ccc(-c2nc(-c3ccc(F)cc3)c(-c3ccncc3)[nH]2)cc1 [SB202190]
- SMN Cytoplam (inhibition of PDGF-stimulated SMN increase) (SMN [3]): 20%
- SMN GEM Intensity (inhibition of PDGF-stimulated SMN increase) (SMN [3]): some
- SMN Nuclear (inhibition of PDGF-stimulated SMN increase) (SMN [3]): 0%
- Cell Number (affected by inhibitor) (SMN [3]): Yes
- PDGF-stimulated SMN increase in the cytoplasm in presence of inhibitor (in words) (SMN [3]): able to prevent SMN increase induced by PDGF; also recorded: partial inhibition of SMN in the cytoplasm
- PDGF-stimulated SMN increase in the nucleus in presence of inhibitor (in words) (SMN [3]): not in the nucleus; also recorded: leaving nuclear SMN unaffected

Compound: CCCCC/C=C\C/C=C\C/C=C\C/C=C\CCCC(=O)NCCO [Anandamide]
- SMN level in fibroblast screen (increase or decrease) (SMN [1]): increase SMN

Compound: O=C(Nc1ccc([N+](=O)[O-])cc1Cl)c1cc(Cl)ccc1O [Niclosamide]
- SMN level in fibroblast screen (increase or decrease) (SMN [1]): SMN is increase

Compound: CC(C)[C@@H]1NC(=O)[C@H](C)OC(=O)[C@@H](C(C)C)NC(=O)[C@@H](C(C)C)OC(=O)[C@H](C(C)C)NC(=O)[C@H](C)OC(=O)[C@@H](C(C)C)NC(=O)[C@@H](C(C)C)OC(=O)[C@H](C(C)C)NC(=O)[C@H](C)OC(=O)[C@@H](C(C)C)NC(=O)[C@@H](C(C)C)OC1=O [Valinomycin]
- SMN level in fibroblast screen (increase or decrease) (SMN [1]): increase SMN

Compound: DMSO
- decrease of basal level of SMN (SMN [2]): 20%

Compound: PDGF-AA rec.: recombinant PDGF-AA
- Avg. SMN fold increase (SMN [2]): 1.3-1.4 fold

Compound: O=c1cc(N2CCOCC2)oc2c(-c3ccccc3)cccc12 [LY294002]
- SMN Cytoplam (inhibition of PDGF-stimulated SMN increase) (SMN [3]): 100%
- SMN GEM Intensity (inhibition of PDGF-stimulated SMN increase) (SMN [3]): 100%
- SMN Nuclear (inhibition of PDGF-stimulated SMN increase) (SMN [3]): 100%
- decrease of basal level of SMN (SMN [2]): 40%
- reduction of SMN (SMN [2]; combinatory treatment of 0.5% serum and PI-3 kinase inhibitor, patient cells): 20%

Compound: CC(=O)O[C@@H]1[C@@H](OC(C)=O)[C@@H](O)[C@H](Oc2c(-c3ccc(O)cc3)oc3cc(O)cc(O)c3c2=O)O[C@H]1C [SL-0101]
- PDGF-stimulated SMN increase in presence of inhibitor (in words) (SMN [3]): didn't have an inhibitory effect
- SMN Cytoplam (inhibition of PDGF-stimulated SMN increase) (SMN [3]): 20%
- SMN GEM Intensity (inhibition of PDGF-stimulated SMN increase) (SMN [3]): 20%
- SMN Nuclear (inhibition of PDGF-stimulated SMN increase) (SMN [3]): 20%

Compound: N#CC(=C(/N)Sc1ccccc1N)/C(C#N)=C(\N)Sc1ccccc1N [U0126]
- PDGF-stimulated SMN increase in presence of inhibitor (in words) (SMN [3]): only partially inhibited
- SMN Cytoplam (inhibition of PDGF-stimulated SMN increase) (SMN [3]): 20-30% ^
- SMN GEM Intensity (inhibition of PDGF-stimulated SMN increase) (SMN [3]): 10%
- SMN Nuclear (inhibition of PDGF-stimulated SMN increase) (SMN [3]): 10%
- Cell Number (affected by inhibitor) (SMN [3]): No

Compound: Cc1c[nH]c(-c2cnc(NCCNc3ccc(C#N)cn3)nc2-c2ccc(Cl)cc2Cl)n1 [CHIR99021]
- levels of cytoplasmic and nuclear SMN (in words) (SMN [2]): increase SMN levels; also recorded: Most active compounds

Compound: FGF2: fibroblast growth factor, RTK ligand
- levels of cytoplasmic and nuclear SMN (in words) (SMN [2]): increases SMN levels
- levels of cytoplasmic and nuclear SMN (in words) (SMN [2]; listed as bFGF): active

Compound: Ryanodine
- levels of cytoplasmic and nuclear SMN (in words) (SMN [2]): weak effect

Compound: CO[C@H]1C[C@@H]2CC[C@@H](C)[C@@](O)(O2)C(=O)C(=O)N2CCCC[C@H]2C(=O)O[C@H]([C@H](C)C[C@@H]2CC[C@@H](O)[C@H](OC)C2)CC(=O)[C@H](C)/C=C(\C)[C@@H](O)[C@@H](OC)C(=O)[C@H](C)C[C@H](C)/C=C/C=C/C=C/1C [Rapamycin]
- SMN Cytoplam (inhibition of PDGF-stimulated SMN increase) (SMN [3]): 80%
- SMN GEM Intensity (inhibition of PDGF-stimulated SMN increase) (SMN [3]): 80-100%
- SMN Nuclear (inhibition of PDGF-stimulated SMN increase) (SMN [3]): 80-100%

Compound: PDGF-AB rec.: recombinant PDGF-AB
- Avg. SMN fold increase (SMN [2]): 1.7-1.9 fold

Compound: CC(=O)C1=C(O)[C@@H]2[C@H]3c4c[nH]c5cccc(c45)C[C@H]3C(C)(C)N2C1=O [Cyclopiazonic acid]
- levels of cytoplasmic and nuclear SMN (in words) (SMN [2]): not active
